According to patent US9944647B2 (Incyte Corporation, priority 2015, dated 2018):

Each molecule was assayed against LSD-1 enzyme (Homo sapiens (Human), UniProt O60341) (assay: LANCE LSD1/KDM1A demethylase assay (LSD1 histone demethylase biochemical assay)). Conditions: 1 nM LSD-1 enzyme, 1 hour preincubation at 25° C., Biotin-labeled Histone H3 peptide substrate.

Question: How did the IC50 turn out when `CN(C)C1CCN(c2nc(-c3ccc(C#N)cc3)c(-c3cnc4c(cnn4C)c3)c3nccn23)CC1` [Example 37, 4-[5-[4-(dimethylamino)piperidin-1-yl]-8-(1-methyl-1H-pyrazolo[3,4-b]pyridin-5-yl)imidazo[1,2-c]pyrimidin-7-yl]benzonitrile] was run?
Answer: Its IC50 is at most 50 nM.

Question: With `CN1CCC[C@@H](COc2nc(-c3ccc(C#N)cc3)c(-c3ccc(CN4CC[C@H](C#N)C4)cc3)c3nccn23)C1` [Example 13, (3S)-1-[4-(7-(4-cyanophenyl)-5-{[(3R)-1-methylpiperidin-3-yl]methoxy}imidazo[1,2-c]pyrimidin-8-yl)benzyl]pyrrolidine-3-carbonitrile] as the molecule, how does the IC50 read?
Answer: Its IC50 is at most 50 nM.

Question: How did the IC50 turn out when `COCc1ccc(-c2c(-c3ccc(C#N)cc3)nc(OC[C@@H]3CCCN(C)C3)n3ccnc23)cc1` [Example 94, 4-(8-[4-(methoxymethyl)phenyl]-5-{[(3R)-1-methylpiperidin-3-yl]methoxy}imidazo[1,2-c]pyrimidin-7-yl)benzonitrile] was run?
Answer: The IC50 was at most 50 nM.

Question: With `CN1CC[C@@H](COc2nc(-c3ccc(C#N)cc3)c(-c3ccc4c(cnn4C)c3)c3nccn23)C1` [Example 27, 4-(8-(1-methyl-1H-indazol-5-yl)-5-{[(3R)-1-methylpyrrolidin-3-yl]methoxy}imidazo[1,2-c]pyrimidin-7-yl)benzonitrile] as the molecule, how does the IC50 read?
Answer: The IC50 was at most 50 nM.

Question: For `CN1CCC[C@@H](COc2nc(-c3ccc(C#N)cc3)c(-c3ccc(N4CCCC4)nc3)c3nccn23)C1` [Example 5, 4-[5-{[(3R)-1-methylpiperidin-3-yl]methoxy}-8-(6-pyrrolidin-1-ylpyridin-3-yl)imidazo[1,2-c]pyrimidin-7-yl]benzonitrile], which IC50 is on record?
Answer: The IC50 was at most 50 nM.

Question: Which IC50 does the source give for `CCN1CCC[C@@H](COc2nc(-c3ccc(C#N)cc3)c(-c3ccc(C)cc3CO)c3nccn23)C1` [Example 119, 4-{5-{[(3R)-1-ethylpiperidin-3-yl]methoxy}-8-[2-(hydroxymethyl)-4-methylphenyl]imidazo[1,2-c]pyrimidin-7-yl}benzonitrile] here?
Answer: The IC50 was 50 to 500 nM.

Question: `CN1CCC[C@@H](COc2nc(-c3ccc(C#N)cc3)c(-c3cnc4c(c3)OCCN4C)c3nccn23)C1` [Example 14, 4-(8-(4-methyl-3,4-dihydro-2H-pyrido[3,2-b][1,4]oxazin-7-yl)-5-{[(3R)-1-methylpiperidin-3-yl]methoxy}imidazo[1,2-c]pyrimidin-7-yl)benzonitrile] was tested. Which IC50 did it give?
Answer: The IC50 was at most 50 nM.

Question: With `Cc1cc(-c2c(-c3ccc(C#N)cc3)nc(N3CCC(N(C)C)CC3)n3ccnc23)cc(F)c1CO` [Example 89, 4-{5-[4-(dimethylamino)piperidin-1-yl]-8-[3-fluoro-4-(hydroxymethyl)-5-methylphenyl]imidazo[1,2-c]pyrimidin-7-yl}benzonitrile] as the molecule, how does the IC50 read?
Answer: Its IC50 is at most 50 nM.

Question: For `CN1C(=O)CCc2cc(-c3c(-c4ccc(C#N)cc4)nc(N4CCC(N(C)C)CC4)n4ccnc34)ccc21` [Example 130, 4-[5-[4-(dimethylamino)piperidin-1-yl]-8-(1-methyl-2-oxo-1,2,3,4-tetrahydroquinolin-6-yl)imidazo[1,2-c]pyrimidin-7-yl]benzonitrile], which IC50 is on record?
Answer: The IC50 was at most 50 nM.

Question: Which IC50 does the source give for `Cn1ncc2cc(-c3c(-c4ccc(C#N)cc4)nc(OC[C@@H]4CCCN(CC(C)(C)O)C4)n4ccnc34)cnc21` [Example 138, 4-[5-{[(3R)-1-(2-hydroxy-2-methylpropyl)piperidin-3-yl]methoxy}-8-(1-methyl-1H-pyrazolo[3,4-b]pyridin-5-yl)imidazo[1,2-c]pyrimidin-7-yl]benzonitrile] here?
Answer: Its IC50 is 50 to 500 nM.

Question: How did the IC50 turn out when `COC(=O)N(C)Cc1ccc(-c2c(-c3ccc(C#N)cc3)nc(OC[C@@H]3CCCN(C)C3)n3ccnc23)cc1F` [Example 40, methyl[4-(7-(4-cyanophenyl)-5-{[(3R)-1-methylpiperidin-3-yl]methoxy}imidazo[1,2-c]pyrimidin-8-yl)-2-fluorobenzyl]methylcarbamate] was run?
Answer: Its IC50 is at most 50 nM.

Question: `Cc1ncc(-c2c(-c3ccc(C#N)cc3)nc(OC[C@@H]3CCCN(C)C3)n3ccnc23)cc1Cl` [Example 92, 4-(8-(5-chloro-6-methylpyridin-3-yl)-5-{[(3R)-1-methylpiperidin-3-yl]methoxy}imidazo[1,2-c]pyrimidin-7-yl)benzonitrile] was tested. Which IC50 did it give?
Answer: The IC50 was at most 50 nM.

Question: Which IC50 does the source give for `Cc1ccc(-c2c(-c3ccc(C#N)cc3)nc(OC[C@@H]3CCCN(C)C3)n3ccnc23)cn1` [Example 73, 4-[5-{[(3R)-1-methylpiperidin-3-yl]methoxy}-8-(6-methylpyridin-3-yl)imidazo[1,2-c]pyrimidin-7-yl]benzonitrile] here?
Answer: Its IC50 is 50 to 500 nM.

Question: How did the IC50 turn out when `CN(C)C1CCN(c2nc(-c3ccc(C#N)cc3)c(-c3cc4oc(=O)n(C)c4cc3F)c3nccn23)CC1` [Example 54, 4-[5-[4-(dimethylamino)piperidin-1-yl]-8-(5-fluoro-3-methyl-2-oxo-2,3-dihydro-1,3-benzoxazol-6-yl)imidazo[1,2-c]pyrimidin-7-yl]benzonitrile] was run?
Answer: The IC50 was at most 50 nM.

Question: How did the IC50 turn out when `COc1ccc(-c2c(-c3ccc(C#N)cc3)nc(OC[C@@H]3CCCN(CCO)C3)n3ccnc23)cn1` [Example 56, 4-[5-{[(3R)-1-(2-hydroxyethyl)piperidin-3-yl]methoxy}-8-(6-methoxypyridin-3-yl)imidazo[1,2-c]pyrimidin-7-yl]benzonitrile] was run?
Answer: Its IC50 is at most 50 nM.

Question: For `Cc1cc(-c2c(-c3ccc(C#N)cc3)nc(N3CC[C@@H](N(C)C)C3)n3ccnc23)cc(F)c1CO` [Example 110, 4-{5-[(3R)-3-(dimethylamino)pyrrolidin-1-yl]-8-[3-fluoro-4-(hydroxymethyl)-5-methylphenyl]imidazo[1,2-c]pyrimidin-7-yl}benzonitrile], which IC50 is on record?
Answer: The IC50 was at most 50 nM.

Question: For `CN1CCC[C@@H](COc2nc(-c3ccc(C#N)cc3)c(-c3ccc4c(c3)OC(=O)N(C)C4)c3nccn23)C1` [Example 43, 4-(8-(3-methyl-2-oxo-3,4-dihydro-2H-1,3-benzoxazin-7-yl)-5-{[(3R)-1-methylpiperidin-3-yl]methoxy}imidazo[1,2-c]pyrimidin-7-yl)benzonitrile], which IC50 is on record?
Answer: Its IC50 is at most 50 nM.

Question: `CN1CCC[C@@H](COc2nc(-c3ccc(C#N)cc3)c(-c3ccc(CN4CCOCC4)cc3F)c3nccn23)C1` [Example 95, 4-(8-[2-fluoro-4-(morpholin-4-ylmethyl)phenyl]-5-{[(3R)-1-methylpiperidin-3-yl]methoxy}imidazo[1,2-c]pyrimidin-7-yl)benzonitrile] was tested. Which IC50 did it give?
Answer: The IC50 was at most 50 nM.

Question: `CN1CCC[C@@H](COc2nc(-c3ccc(C#N)cc3)c(-c3cc(F)c(CO)c(F)c3)c3nccn23)C1` [Example 32, 4-(8-[3,5-difluoro-4-(hydroxymethyl)phenyl]-5-{[(3R)-1-methylpiperidin-3-yl]methoxy}imidazo[1,2-c]pyrimidin-7-yl)benzonitrile] was tested. Which IC50 did it give?
Answer: Its IC50 is at most 50 nM.

Question: For `CN(C)[C@@H]1CCN(c2nc(-c3ccc(C#N)cc3)c(-c3cnc4c(cnn4C)c3)c3nccn23)C1` [Example 38, 4-[5-[(3R)-3-(dimethylamino)pyrrolidin-1-yl]-8-(1-methyl-1H-pyrazolo[3,4-b]pyridin-5-yl)imidazo[1,2-c]pyrimidin-7-yl]benzonitrile], which IC50 is on record?
Answer: The IC50 was at most 50 nM.

Question: For `Cc1ccc(-c2c(-c3ccc(C#N)cc3)nc(OC[C@@H]3CCCN(C)C3)n3ccnc23)c(CO)c1` [Example 72, 4-(8-[2-(hydroxymethyl)-4-methylphenyl]-5-{[(3R)-1-methylpiperidin-3-yl]methoxy}imidazo[1,2-c]pyrimidin-7-yl)benzonitrile], which IC50 is on record?
Answer: Its IC50 is at most 50 nM.

Question: With `CN1CCC[C@@H](COc2nc(-c3ccc(C#N)cc3)c(-c3cnc4c(ccn4C)c3)c3nccn23)C1` [Example 19, 4-[5-{[(3R)-1-methylpiperidin-3-yl]methoxy}-8-(1-methyl-1H-pyrrolo[2,3-b]pyridin-5-yl)imidazo[1,2-c]pyrimidin-7-yl]benzonitrile] as the molecule, how does the IC50 read?
Answer: Its IC50 is at most 50 nM.

Question: For `Cn1ncc2cc(-c3c(-c4ccc(C#N)cc4)nc(OC[C@@H]4CCCN(CCO)C4)n4ccnc34)cnc21` [Example 34, 4-[5-{[(3R)-1-(2-hydroxyethyl)piperidin-3-yl]methoxy}-8-(1-methyl-1H-pyrazolo[3,4-b]pyridin-5-yl)imidazo[1,2-c]pyrimidin-7-yl]benzonitrile], which IC50 is on record?
Answer: The IC50 was at most 50 nM.

Question: `CN1CCC[C@@H](COc2nc(-c3ccc(C#N)cc3)c(-c3ccc(CO)c(Cl)c3)c3nccn23)C1` [Example 101, 4-(8-[3-chloro-4-(hydroxymethyl)phenyl]-5-{[(3R)-1-methylpiperidin-3-yl]methoxy}imidazo[1,2-c]pyrimidin-7-yl)benzonitrile] was tested. Which IC50 did it give?
Answer: The IC50 was at most 50 nM.

Question: With `CN1CCC[C@@H](COc2nc(-c3ccc(C#N)cc3)c(-c3ccc4c(c3)CC(=O)N4C)c3nccn23)C1` [Example 6, 4-(8-(1-methyl-2-oxo-2,3-dihydro-1H-indol-5-yl)-5-{[(3R)-1-methylpiperidin-3-yl]methoxy}imidazo[1,2-c]pyrimidin-7-yl)benzonitrile] as the molecule, how does the IC50 read?
Answer: The IC50 was 50 to 500 nM.

Question: `CN1CCC[C@@H](COc2nc(-c3ccc(C#N)cc3)c(-c3ccc4c(c3)OCC(=O)N4C)c3nccn23)C1` [Example 15, 4-(8-(4-methyl-3-oxo-3,4-dihydro-2H-1,4-benzoxazin-7-yl)-5-{[(3R)-1-methylpiperidin-3-yl]methoxy}imidazo[1,2-c]pyrimidin-7-yl)benzonitrile] was tested. Which IC50 did it give?
Answer: Its IC50 is 50 to 500 nM.

Question: `CCN1CCC[C@@H](COc2nc(-c3ccc(C#N)cc3)c(-c3cnc4c(cnn4C)c3)c3nccn23)C1` [Example 29, 4-[5-{[(3R)-1-ethylpiperidin-3-yl]methoxy}-8-(1-methyl-1H-pyrazolo[3,4-b]pyridin-5-yl)imidazo[1,2-c]pyrimidin-7-yl]benzonitrile] was tested. Which IC50 did it give?
Answer: Its IC50 is at most 50 nM.

Question: Which IC50 does the source give for `Cc1ccc(-c2c(-c3ccc(C#N)cc3)nc(OC[C@@H]3CCCN(C)C3)n3ccnc23)cc1` [Example 1, 4-(8-(4-methylphenyl)-5-{[(3R)-1-methylpiperidin-3-yl]methoxy}imidazo[1,2-c]pyrimidin-7-yl)benzonitrile] here?
Answer: Its IC50 is at most 50 nM.

Question: For `Cc1cc(-c2c(-c3ccc(C#N)cc3)nc(N3CCC(N(C)C)CC3)n3ccnc23)ccc1CO` [Example 91, 4-{5-[4-(dimethylamino)piperidin-1-yl]-8-[4-(hydroxymethyl)-3-methylphenyl]imidazo[1,2-c]pyrimidin-7-yl}benzonitrile], which IC50 is on record?
Answer: The IC50 was at most 50 nM.

Question: With `CN1CC[C@@H](COc2nc(-c3ccc(C#N)cc3)c(-c3ccc(N4CCCC4)nc3)c3nccn23)C1` [Example 22, 4-[5-{[(3R)-1-methylpyrrolidin-3-yl]methoxy}-8-(6-pyrrolidin-1-ylpyridin-3-yl)imidazo[1,2-c]pyrimidin-7-yl]benzonitrile] as the molecule, how does the IC50 read?
Answer: Its IC50 is 50 to 500 nM.
